From patent US9464117B2, “Herbicide-resistant proteins, encoding genes, and uses thereof” (Beijing Dabeinong Technology Group Co., Ltd., priority 2012, dated 2016) come the findings set out here.

Holding throughout (assay type): in vivo
For assay [1], the system named is maize plants containing 24DT07 nucleotide sequence. Briefly: Herbicide-resistance effect test of the transgenic corn plants (prop root development). Conditions: comparison of the four 24DT07 genotypes; 8960 g ae/ha. The protocol:
(§1) Herbicide resistance effects tests to 2,4-D dimethyl ammonium salt and agroxone of maize plants containing 24DT07 nucleotide sequence, 24DT07 substituted nucleotide sequence, 24DT07 truncated nucleotide sequence, 24DT07 added nucleotide sequence, control nucleotide sequence respectively and wild type maize plants (stages V3-V4) were performed respectively.
(§2) Maize plants containing 24DT07 nucleotide sequence, 24DT07 substituted nucleotide sequence, 24DT07 truncated nucleotide sequence, 24DT07 added nucleotide sequence, control nucleotide sequence respectively and wild type maize plants were taken and spayed with 2,4-D dimethyl ammonium salt (8960 g ae/ha, 16-folds concentration in field), agroxone (8960 g ae/ha, 16-folds concentration in field) and blank solvent (water) respectively. Prop root development was counted 21 days after spaying. Three strains (S1, S2, and S3) of corn plants transfected with 24DT07 nucleotide sequence, two strains (S4 and S5) of corn plants transfected with 24DT07 substituted nucleotide sequence, two strains (S6 and S7) of corn plants transfected with 24DT07 truncated nucleotide sequence, two strains (S8 and S9) of corn plants transfected with 24DT07 added nucleotide sequence, two strains (S10 and S11) of corn plants transfected with control nucleotide sequence and 1 strain of wild type (CK) corn were selected and 10-15 plants from each stain were tested.

Assay [2] has as its system maize plants containing 24DT07 truncated nucleotide sequence. The assay is described as above. Conditions: 8960 g ae/ha sprayed, 21 days after spraying. As for the experimental part: as §1, §2
For assay [3], the system named is Arabidopsis T1 plants transformed with truncated 24DT07 nucleotide sequence. In words: Herbicide resistance effect test of transgenic Arabidopsis T1 plants. Conditions: genotype 24DT07-t; for Highly resistant: 560 g ae/ha sprayed (1-fold field concentration), number of plants with growth consistent with blank solvent 7 days after spraying; for Non-resistant: 560 g ae/ha sprayed, number of dead plants 14 days after spraying. The source says:
(§3) 24DT07 gene was used to transform Arabidopsis for the first time. At first, T1 transformants were selected from the background of un-transformed seeds, using glufosinate-ammonium selection scheme. About 40000 T1 seeds are screened among which 195 strains of T1 generation positive transformants (PAT gene) were identified, i.e. the transformation efficiency was about 0.5%. Herbicide resistance effect tests to 2,4-D dimethyl ammonium salt and agroxone of Arabidopsis T1 plants transformed with 24DT07 nucleotide sequence, substituted 24DT07 nucleotide sequence, truncated 24DT07 nucleotide sequence, added 24DT07 nucleotide sequence, control nucleotide sequence respectively and wild-type Arabidopsis plants were performed after 18 days of planting.
(§4) Arabidopsis T1 plants transformed with 24DT07 nucleotide sequence, substituted 24DT07 nucleotide sequence, truncated 24DT07 nucleotide sequence, added 24DT07 nucleotide sequence and control nucleotide sequence respectively and wild-type Arabidopsis plants were sprayed with 2,4-D dimethyl ammonium salt (560 g ae/ha, 1-fold concentration in field), agroxone (560 g ae/ha, 1-fold concentration in field) and blank solvent (water). Resistance conditions of the plants were counted 7 days and 14 days after spraying. Plants with growth conditions consistent with blank solvent (water) 7 days after spaying were classified as highly resistant plants; Plants with curly rosette leaves 7 days after spaying were classified as moderately resistant plants; Plants incapable of bolting 14 days after spaying were classified as low-resistant plants and the dead plants 14 days after spaying were classified as non-resistant plants. Because each Arabidopsis T1 plant is an independent transformation event, significant differences of individual T1 responses can be expected under a given dose.

Assay [4] relates to Arabidopsis T1 plants transformed with added 24DT07 nucleotide sequence. The description is as above. The note with it: genotype 24DT07-a; for Highly resistant: 560 g ae/ha sprayed (1-fold field concentration), number of plants with growth consistent with blank solvent 7 days after spraying; for Non-resistant: 560 g ae/ha sprayed, number of dead plants 14 days after spraying.
Source text: as §3, §4

The subject of assay [5] is Arabidopsis T1 plants transformed with substituted 24DT07 nucleotide sequence. The description is as above. Conditions: genotype 24DT07-i; for Highly resistant: 560 g ae/ha sprayed (1-fold field concentration), number of plants with growth consistent with blank solvent 7 days after spraying; for Non-resistant: 560 g ae/ha sprayed, number of dead plants 14 days after spraying.
Source text: as §3, §4

The test system of assay [6] is Arabidopsis T1 plants transformed with 24DT07 nucleotide sequence. The assay is described as above. Conditions: for differences of resistance levels between Arabidopsis T1 plants transformed with 24DT07, substituted, truncated and added 24DT07 nucleotide sequence: comparison of the four 24DT07 genotypes, 560 g ae/ha; for Highly resistant: 560 g ae/ha sprayed (1-fold field concentration), number of plants with growth consistent with blank solvent 7 days after spraying; for Non-resistant: number of dead plants 14 days after spraying.
Source text: as §3, §4

Assay [7] relates to maize plants containing 24DT07 substituted nucleotide sequence. In words: Herbicide-resistance effect test of the transgenic corn plants (prop root development). Conditions: corn strain S5 (24DT07 substituted); 8960 g ae/ha sprayed; 21 days after spraying. The protocol: as §1, §2
[8] abbreviates: corn strain S7 (24DT07 truncated).
Setting [9] is: genotype 24DT07, 560 g ae/ha sprayed.

Turning to `CNC.O=C(O)COc1ccc(Cl)cc1Cl` [2,4-D dimethyl ammonium salt], the “differences of resistance levels between corn plants transformed with 24DT07, substituted, truncated and added 24DT07 nucleotide sequence” value in assay [1] is “didn't show significant differences”. For the same molecule, the entries for the “Ratio of the normally developed prop roots” value in assay [2] (corn strain S6 (24DT07 truncated)) and in assay [2] (setting [8]) were 92.31% and 93.33%, respectively. Besides, the Highly resistant in assay [3] worked out at 16; in assay [4] it was 17; in assay [5], 18; in assay [6] (genotype 24DT07) it was 20. For the same molecule, the Non-resistant in assay [3], in assay [4], in assay [5] and in assay [6] (setting [9]) was 0 in each case. In addition, the “differences of resistance levels between Arabidopsis T1 plants transformed with 24DT07, substituted, truncated and added 24DT07 nucleotide sequence” value in assay [6] is “didn't show significant differences”.
As to `Cc1cc(Cl)ccc1OCC(=O)O` [agroxone], the “differences of resistance levels between corn plants transformed with 24DT07, substituted, truncated and added 24DT07 nucleotide sequence” value in assay [1] is on record as “didn't show significant differences”. The “Ratio of the normally developed prop roots” value in assay [2] (setting [8]) came to 91.67%; in assay [7], 92.86%. Also, the Highly resistant in assay [3] worked out at 18; in assay [4], 15; in assay [5] it was 17; in assay [6] (genotype 24DT07) it was 19. Moreover, the Non-resistant in assay [3], in assay [4], in assay [5] and in assay [6] (setting [9]) was 0 each time. Moreover, the “differences of resistance levels between Arabidopsis T1 plants transformed with 24DT07, substituted, truncated and added 24DT07 nucleotide sequence” value in assay [6] is listed as “didn't show significant differences”. In assay [6] (genotype 24DT07, 560 g ae/ha sprayed, number of plants with curly rosette leaves 7 days after spraying), this molecule yielded a Moderately resistant of 3.
